Measurements taken from ChEMBL document CHEMBL1201862, “PubChem BioAssay data set” (2004).
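1) Cells in 96-well plates. 2) Compound, 48 h, 5 concentrations. 3) Linear interpolation between surrounding doses. 4) Unreached endpoint = highest concentration. GI50 is the concentration that inhibits growth by half.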 Calls of active or inactive are those of the source. Rule as the data show it: active = GI50 up to about 1.1 µM and inactive = higher.

Assays:
Test in all cases: inhibition of tumour cell growth, NCI panel, 48 h
786-0 = system: 786-0
A498 = system: A498
A549 = system: A549
ACHN = system: ACHN
CAKI-1 = system: CAKI-1
CCRF-CEM = system: CCRF-CEM
COLO 205 = system: COLO 205
DLD-1 = system: DLD-1
DMS-114 = system: DMS-114
DMS-273 = system: DMS-273
EKVX = system: EKVX
HCC 2998 = system: HCC 2998
HCT-116 = system: HCT-116
HCT-15 = system: HCT-15
HL-60 = system: HL-60
HOP-18 = system: HOP-18
HOP-62 = system: HOP-62
HOP-92 = system: HOP-92
HT-29 = system: HT-29
IGROV-1 = system: IGROV-1
K562 = system: K562
KM-20L2 = system: KM-20L2
KM12 = system: KM12
LOX IMVI = system: LOX IMVI
LXFL 529 = system: LXFL 529
M14 = system: M14
M19-MEL = system: M19-MEL
MOLT-4 = system: MOLT-4
Malme-3M = system: Malme-3M
NCI-H226 = system: NCI-H226
NCI-H23 = system: NCI-H23
NCI-H460 = system: NCI-H460
NCI-H522 = system: NCI-H522
OVCAR-3 = system: OVCAR-3
OVCAR-4 = system: OVCAR-4
OVCAR-5 = system: OVCAR-5
OVCAR-8 = system: OVCAR-8
RPMI-8226 = system: RPMI-8226
RXF 393 = system: RXF 393
RXF 631 = system: RXF 631
SF-268 = system: SF-268
SF-295 = system: SF-295
SF-539 = system: SF-539
SK-MEL-28 = system: SK-MEL-28
SK-MEL-5 = system: SK-MEL-5
SK-OV-3 = system: SK-OV-3
SN12C = system: SN12C
SNB-19 = system: SNB-19
SNB-75 = system: SNB-75
SNB-78 = system: SNB-78
SR = system: SR
SW-620 = system: SW-620
TK-10 = system: TK-10
U-251 = system: U-251
UACC-257 = system: UACC-257
UACC-62 = system: UACC-62
UO-31 = system: UO-31
XF498 = system: XF498
SK-MEL-2 = system: SK-MEL-2

SMILES: CC(=O)/C=C/c1cccc(N=S)c1
- GI50 (786-0): 6 µM (inactive)
- GI50 (A498): 27 µM (inactive)
- GI50 (A549): 26.5 µM (inactive)
- GI50 (ACHN): > 38.4 µM (inactive)
- GI50 (CAKI-1): > 50.9 µM (inactive)
- GI50 (CCRF-CEM): 8.24 µM (inactive)
- GI50 (COLO 205): 20.1 µM (inactive)
- GI50 (DLD-1): 4.88 µM (inactive)
- GI50 (DMS-114): 23 µM (inactive)
- GI50 (DMS-273): 7.06 µM (inactive)
- GI50 (EKVX): > 40.8 µM (inactive)
- GI50 (HCC 2998): 12.7 µM (inactive)
- GI50 (HCT-116): 1.39 µM (inactive)
- GI50 (HCT-15): 8.79 µM
- GI50 (HL-60): 5.79 µM (inactive)
- GI50 (HOP-18): 50 µM (inactive)
- GI50 (HOP-62): > 63.5 µM (inactive)
- GI50 (HOP-92): > 100 µM (inactive)
- GI50 (HT-29): 6.28 µM (inactive)
- GI50 (IGROV-1): 19.2 µM (inactive)
- GI50 (K562): 4.62 µM (inactive)
- GI50 (KM-20L2): 13.8 µM (inactive)
- GI50 (KM12): 6.68 µM (inactive)
- GI50 (LOX IMVI): 2.39 µM (inactive)
- GI50 (LXFL 529): 5.78 µM (inactive)
- GI50 (M14): 6.71 µM (inactive)
- GI50 (M19-MEL): 6.25 µM (inactive)
- GI50 (MOLT-4): > 40.1 µM (inactive)
- GI50 (Malme-3M): > 73.8 µM (inactive)
- GI50 (NCI-H226): 46 µM (inactive)
- GI50 (NCI-H23): 30.7 µM (inactive)
- GI50 (NCI-H460): > 36.9 µM (inactive)
- GI50 (NCI-H522): 18.6 µM (inactive)
- GI50 (OVCAR-3): 19.2 µM (inactive)
- GI50 (OVCAR-4): 52.2 µM (inactive)
- GI50 (OVCAR-5): > 69 µM (inactive)
- GI50 (OVCAR-8): 12.2 µM (inactive)
- GI50 (RPMI-8226): 3.63 µM (inactive)
- GI50 (RXF 393): 17.6 µM (inactive)
- GI50 (RXF 631): 39 µM (inactive)
- GI50 (SF-268): > 30.3 µM (inactive)
- GI50 (SF-295): 15.2 µM (inactive)
- GI50 (SF-539): 5.9 µM (inactive)
- GI50 (SK-MEL-28): 16.5 µM (inactive)
- GI50 (SK-MEL-5): 23.4 µM (inactive)
- GI50 (SK-OV-3): > 48.1 µM (inactive)
- GI50 (SN12C): 25.6 µM (inactive)
- GI50 (SNB-19): > 43.2 µM (inactive)
- GI50 (SNB-75): 21.1 µM (inactive)
- GI50 (SNB-78): 32.8 µM (inactive)
- GI50 (SR): 7.78 µM (inactive)
- GI50 (SW-620): 2.44 µM (inactive)
- GI50 (TK-10): > 52.8 µM (inactive)
- GI50 (U-251): 6.64 µM (inactive)
- GI50 (UACC-257): 29.4 µM (inactive)
- GI50 (UACC-62): 21.6 µM (inactive)
- GI50 (UO-31): 39.4 µM (inactive)
- GI50 (XF498): > 100 µM (inactive)

SMILES: CCCCCN(CCCCC)C(=O)[C@@H](CCC(=O)OCc1ccccc1)NC(=O)c1cc2ccccc2[nH]1
- GI50 (786-0): > 100 µM (inactive)
- GI50 (A498): > 100 µM (inactive)
- GI50 (A549): > 100 µM (inactive)
- GI50 (ACHN): > 100 µM (inactive)
- GI50 (CAKI-1): 8.81 µM (inactive)
- GI50 (CCRF-CEM): > 100 µM (inactive)
- GI50 (COLO 205): 6.18 µM (inactive)
- GI50 (DLD-1): > 100 µM (inactive)
- GI50 (DMS-114): > 100 µM (inactive)
- GI50 (DMS-273): > 100 µM (inactive)
- GI50 (EKVX): > 100 µM (inactive)
- GI50 (HCC 2998): > 100 µM (inactive)
- GI50 (HCT-116): > 100 µM (inactive)
- GI50 (HCT-15): > 100 µM
- GI50 (HOP-18): > 100 µM (inactive)
- GI50 (HOP-62): > 100 µM (inactive)
- GI50 (HOP-92): > 100 µM (inactive)
- GI50 (HT-29): > 100 µM (inactive)
- GI50 (IGROV-1): > 100 µM (inactive)
- GI50 (K562): 5.55 µM (inactive)
- GI50 (KM-20L2): > 100 µM (inactive)
- GI50 (KM12): 7.67 µM (inactive)
- GI50 (LOX IMVI): > 100 µM (inactive)
- GI50 (LXFL 529): 8.85 µM (inactive)
- GI50 (M14): > 100 µM (inactive)
- GI50 (Malme-3M): > 100 µM (inactive)
- GI50 (NCI-H23): > 100 µM (inactive)
- GI50 (NCI-H460): > 100 µM (inactive)
- GI50 (NCI-H522): > 100 µM (inactive)
- GI50 (OVCAR-3): > 100 µM (inactive)
- GI50 (OVCAR-4): > 100 µM (inactive)
- GI50 (OVCAR-5): > 100 µM (inactive)
- GI50 (OVCAR-8): 6.15 µM (inactive)
- GI50 (RXF 393): > 100 µM (inactive)
- GI50 (RXF 631): > 100 µM (inactive)
- GI50 (SF-268): > 100 µM (inactive)
- GI50 (SF-295): > 100 µM (inactive)
- GI50 (SF-539): > 100 µM (inactive)
- GI50 (SK-MEL-28): > 100 µM (inactive)
- GI50 (SK-MEL-2): > 100 µM (inactive)
- GI50 (SK-OV-3): > 100 µM (inactive)
- GI50 (SN12C): > 100 µM (inactive)
- GI50 (SNB-19): > 100 µM (inactive)
- GI50 (SNB-75): > 100 µM (inactive)
- GI50 (SNB-78): > 100 µM (inactive)
- GI50 (SW-620): > 100 µM (inactive)
- GI50 (U-251): 6.22 µM (inactive)
- GI50 (UACC-257): 39.3 µM (inactive)
- GI50 (UACC-62): 6.78 µM (inactive)
- GI50 (UO-31): > 100 µM (inactive)
